Reference: patent publication US20180118756A1, “COMPOSITIONS AND METHODS OF MODULATING SHORT-CHAIN DEHYDROGENASE ACTIVITY” (CASE WESTERN RESERVE UNIVERSITY, priority 2015, published 2018)
In brackets after ≈: the same amount, converted by molar mass. Like-named read-outs stand apart in the source and are kept apart here.

Columns and labels:
[1] = aqueous solubility in pH 7 or pH 4 citrate buffer solution; type: physicochemical
recombinant 15-PGDH = target: T1, recombinant 15-PGDH (Homo sapiens, UniProt P15428); assay: IC50 for inhibiting enzymatic activity of recombinant 15-PGDH in an in vitro assay; type: biochemical; conditions: recombinant human 15-PGDH at 5 nM, in vitro
T1 sequence (P15428 1-266): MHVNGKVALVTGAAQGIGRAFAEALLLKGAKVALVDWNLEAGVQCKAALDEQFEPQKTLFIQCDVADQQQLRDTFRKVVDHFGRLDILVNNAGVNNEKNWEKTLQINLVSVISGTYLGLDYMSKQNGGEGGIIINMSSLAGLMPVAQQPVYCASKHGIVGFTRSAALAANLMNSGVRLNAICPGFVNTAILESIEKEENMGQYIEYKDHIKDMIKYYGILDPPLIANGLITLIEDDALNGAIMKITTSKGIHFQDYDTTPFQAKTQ

[2] = citrate buffer solution, pH 7, aqueous buffer, pH 7 citrate buffer solution, read-out: pH 7 solubility
[3] = citrate buffer solution, pH 4, aqueous buffer, pH 4 citrate buffer solution, read-out: pH 4 solubility
[4] = Enzyme Inhibitor IC50 (nM) at 5 nM 15-PGDH
[5] = read-out: Enzyme Inhibitor IC50 (nM) at 5 nM 15-PGDH

CCCC[S+]([O-])c1sc2nc(-c3cccs3)cc(C)c2c1N (stereo not shown) [SW 208488]
solubility [1, 2]: 2.6 µg/mL (≈ 7.42 µM)

CCC[S+]([O-])c1sc2nc(-c3nccs3)cc(-c3nccn3C)c2c1N (stereo not shown) [SW 209280]
solubility [1, 3]: 88 µg/mL (≈ 218 µM)
solubility [1, 2]: 17 µg/mL (≈ 42.1 µM)

CCCC[S+]([O-])c1sc2nc(-c3nccs3)cc(-c3cncn3C)c2c1N (stereo not shown) [SW 217781, 2-(butylsulfinyl)-4-(1-methyl-1H-imidazol-5-yl)-6-(thiazol-2-yl)thieno[2,3-b]pyridin-3-amine]
IC50 (recombinant 15-PGDH; [4]): 1.9 nM
solubility [1, 3]: 71.8 µg/mL (≈ 172 µM)
solubility [1, 2]: 14 µg/mL (≈ 33.5 µM)

CC(C)[S+]([O-])c1sc2nc(-c3nccs3)cc(-c3ccccc3)c2c1N (stereo not shown) [SW 208780]
IC50 (recombinant 15-PGDH; [5]): 5.55 nM
solubility [1, 2]: 0.65 µg/mL (≈ 1.63 µM)

CCCC[S+]([O-])c1sc2nc(-c3nccs3)cc(-c3cnc(C4CC4)n3C)c2c1N (single isomer, unassigned) [SW 212345]
solubility [1, 3]: 164 µg/mL (≈ 358 µM)
solubility [1, 2]: 4 µg/mL (≈ 8.74 µM)

CCCC[S+]([O-])c1sc2nc(-c3nccs3)cc(-c3ccc(OCCO)cc3)c2c1N (stereo not shown) [SW 211688]
solubility [1, 3]: 1180 µg/mL (≈ 2490 µM)
solubility [1, 2]: 115 µg/mL (≈ 243 µM)

CCCC[S+]([O-])c1sc2nc(-c3nccs3)cc(-c3ccc(C(C)O)cc3)c2c1N (stereo not shown) [SW 217778, 1-(4-(3-amino-2-(butylsulfinyl)-6-(thiazol-2-yl)thieno[2,3-b]pyridin-4-yl)phenyl)ethan-1-ol]
IC50 (recombinant 15-PGDH; [4]): 2.2 nM
solubility [1, 2]: 7.4 µg/mL (≈ 16.2 µM)

Cc1cc(-c2nccs2)nc2sc([S+]([O-])C(C)C)c(N)c12 (stereo not shown) [SW 208664]
IC50 (recombinant 15-PGDH; [5]): 7.62 nM
solubility [1, 2]: 9.7 µg/mL (≈ 28.7 µM)

CCCC[S+]([O-])c1sc2nc(-c3nccs3)cc(-c3ccc(COC(=O)NCCCl)cc3)c2c1N (stereo not shown) [SW 213064, 4-(3-amino-2-(butylsulfinyl)-6-(thiazol-2-yl)thieno[2,3-b]pyridin-4-yl)benzyl (2-chloroethyl)carbamate]
IC50 (recombinant 15-PGDH; [4]): 5.9 nM
solubility ([1]; aqueous buffer, pH 7 citrate buffer solution, read-out: pH 7 solubility): 8.27 µg/mL (≈ 15.1 µM)

CCCC[S+]([O-])c1sc2nc(-c3nccs3)cc(-c3ccc(OCCOC(=O)CCC(=O)O)cc3)c2c1N (stereo not shown) [SW 217999, 4-(2-(4-(3-amino-2-(butylsulfinyl)-6-(thiazol-2-yl)thieno[2,3-b]pyridin-4-yl)phenoxy)ethoxy)-4-oxobutanoic acid]
IC50 (recombinant 15-PGDH; [4]): 6.2 nM
solubility [1, 2]: 747 µg/mL (≈ 1300 µM)

CCCC[S+]([O-])c1sc2nc(-c3nc(C)cs3)cc(-c3cnc(C)n3C)c2c1N (stereo not shown) [SW 217779, 2-(butylsulfinyl)-4-(1,2-dimethyl-1H-imidazol-5-yl)-6-(4-methylthiazol-2-yl)thieno[2,3-b]pyridin-3-amine]
solubility [1, 3]: 597 µg/mL (≈ 1340 µM)
solubility [1, 2]: 30.5 µg/mL (≈ 68.4 µM)

CC(C)[S+]([O-])c1sc2nc(-c3ncco3)cc(-c3ccccc3)c2c1N (stereo not shown) [SW 208660]
IC50 (recombinant 15-PGDH; [5]): 2.86 nM
solubility [1, 2]: 11.6 µg/mL (≈ 30.2 µM)

CCCC[S+]([O-])c1sc2nc(-c3nccs3)cc(-c3cnc(C)n3C)c2c1N (single isomer, unassigned; (+)) [(+)-(R)- SW 209415]
pH 7 solubility (μg/mL) ([1]; pH 7 citrate buffer solution): 2 μg/mL

CCCC[S+]([O-])c1sc2nc(-c3ncco3)cc(-c3ccccc3)c2c1N (stereo not shown) [SW 208496]
solubility [1, 2]: 2.2 µg/mL (≈ 5.53 µM)

CCCC[S+]([O-])c1sc2nc(-c3nccs3)cc(-c3nccn3C)c2c1N (stereo not shown) [SW 209125]
solubility [1, 3]: 31.6 µg/mL (≈ 75.7 µM)

COCC[S+]([O-])c1sc2nc(-c3nccs3)cc(-c3nccs3)c2c1N (stereo not shown) [SW 213156]
IC50 (recombinant 15-PGDH; [4]): 5.7 nM
solubility [1, 2]: 3.8 µg/mL (≈ 8.99 µM)

CC(C)[S+]([O-])c1sc2nc(-c3nccs3)cc(-c3nccn3C)c2c1N (stereo not shown) [SW 209279]
solubility [1, 3]: 73 µg/mL (≈ 181 µM)
solubility [1, 2]: 37.7 µg/mL (≈ 93.4 µM)

CCCC[S+]([O-])c1sc2nc(-c3nccs3)cc(-c3cccnc3)c2c1N (stereo not shown) [SW 208777]
solubility [1, 3]: 3.8 µg/mL (≈ 9.17 µM)
solubility [1, 2]: 3.4 µg/mL (≈ 8.2 µM)

CCCC[S+]([O-])c1sc2nc(-c3nccs3)cc(-c3cccc(CO)c3)c2c1N (stereo not shown) [SW 209418]
solubility [1, 2]: 5.9 µg/mL (≈ 13.3 µM)

CCCC[S+]([O-])c1sc2nc(-c3nccs3)cc(-c3cnc(C)n3C)c2c1N (stereo not shown) [SW 209415, 2-(butylsulfinyl)-4-(1,2-dimethyl-1H-imidazol-5-yl)-6-(thiazol-2-yl)thieno[2,3-b]pyridin-3-amine]
solubility [1, 3]: 241 µg/mL (≈ 558 µM)
solubility [1, 2]: 54.3 µg/mL (≈ 126 µM)

CCCC[S+]([O-])c1sc2nc(-c3nccs3)ccc2c1N (stereo not shown) [SW 206992]
solubility [1, 2]: 4.76 µg/mL (≈ 14.1 µM)
